Measured values taken from US20020006915A1, “Use of COX-2 inhibitors to treat sepsis, complications thereof, and EP receptor modulation” (priority 2000, published 2002).
“Also recorded” adds a separate entry of the source.

How the values were obtained:
CD14 receptor = conditions: mononuclear cells from control and injured subjects, co-culture with 100 μM PGE2
Experimental: To confirm that injury was not down regulating all circulating mononuclear cell surface receptors, the expression of the CD14 receptor, which is ubiquitous on the surface of mononuclear cells, was evaluated.

EP4 receptor = EP4 receptor expression in LPS stimulated human PBMC's via RT-PCR; type: cell-based; conditions: control PBMC's
Experimental: (§1) Serial dilutions were made to co-culture cells with a final concentration of […] NS-398 in a 0.1% DMSO. Control and trauma groups were co-cultured with 0.1% DMSO vehicle for comparisons with NS-398 treated groups.

EP2 receptor = EP2 receptor expression in LPS stimulated human PBMC's via RT-PCR; type: cell-based; conditions: control PBMC's
Experimental: as §1

[1] = exogenous PGE2 from 10^−4 μM, below 100 μM

CCCCC[C@H](O)/C=C/[C@H]1[C@H](O)CC(=O)[C@@H]1C/C=C\CCCC(=O)O [PGE2, Prostaglandin-E2]
CD14 receptor expression (CD14 receptor): did not markedly alter the levels of CD14 receptor expression
EP4 receptor expression (EP4 receptor; 100 μM exogenous PGE2): attenuated to levels below those seen in control samples; also recorded: Decreased expression
EP4 receptor expression (EP4 receptor; [1]): no change in receptor expression; also recorded: No attenuation
EP2 receptor expression (EP2 receptor; 100 μM exogenous PGE2): attenuated to levels below those seen in control samples; also recorded: Decreased expression
EP2 receptor expression (EP2 receptor; [1]): no change in receptor expression; also recorded: No attenuation
